Here are results for five compounds from patent US5916904A, “Antimicrobial agent” (Eisai Co., Ltd., priority 1992, dated 1999).

One data set relates to C. pylori EI-612. Briefly: MIC by agar dilution method, C. pylori clinical isolate EI-612. The class given is cell-based. Particulars: Helicobacter pylori, EI612, 72 h; EI-612, clinical isolate; in vitro, 37° C., pH 7.0, 3 days, microaerophilic; read-out: antibiotic activity (MIC). On the technique in general: In agar dilution, organisms are placed on agar that contains the substance at set levels.

The test system of a further data set is C. pylori EI-2. Put plainly: MIC by agar dilution method, C. pylori clinical isolate EI-2. The note with it: Helicobacter pylori, EI2, 72 h; EI-2, clinical isolate; in vitro, 37° C., pH 7.0, 3 days, microaerophilic; read-out: antibiotic activity (MIC). In kind it is cell-based.
A further data set relates to C. pylori EI-391. Briefly: MIC by agar dilution method, C. pylori clinical isolate EI-391. In kind it is cell-based. The note with it: Helicobacter pylori, EI391, 72 h; EI-391, clinical isolate (resistant); in vitro, 37° C., pH 7.0, 3 days, microaerophilic; read-out: antibiotic activity (MIC).
The next data set deals with C. pylori EI-930. Put plainly: MIC by agar dilution method, C. pylori clinical isolate EI-930. The class given is cell-based. Particulars: Helicobacter pylori, EI930, 72 h; EI-930, clinical isolate; in vitro, 37° C., pH 7.0, 3 days, microaerophilic; read-out: antibiotic activity (MIC).
A further data set deals with C. pylori EI-933. Put plainly: MIC by agar dilution method, C. pylori clinical isolate EI-933. Particulars: Helicobacter pylori, EI933, 72 h; EI-933, clinical isolate; in vitro, 37° C., pH 7.0, 3 days, microaerophilic; read-out: antibiotic activity (MIC). In kind it is cell-based.
For another data set, the system named is C. pylori NCTC11637. Briefly: MIC by agar dilution method, C. pylori standard strain NCTC11637. In kind it is cell-based. Particulars: Helicobacter pylori, 72 h, in vitro, 37° C., pH 7.0, 3 days, microaerophilic, read-out: antibiotic activity (MIC).
Data set [1] is described as follows: Acute Toxicological Test in mice. Particulars: mouse, in vivo, one time. As to the method:
(§1) The compound (I) of the invention was administered Intravenously or orally one time, with a carrier of saline, to Slc:SD rats and Slc:ICR mouse, each being 7 or 8 weeks old, in a group consisting of five males and five females, to determine LD50 values.
(§2) Acute toxicity of the compound (I) is shown in terms of LD50 in unit of mg/kg.

A further data set concerns C. pylori EI-925. Put plainly: MIC by agar dilution method, C. pylori clinical isolate EI-925. The note with it: Helicobacter pylori, EI925, 72 h; EI-925, clinical isolate; in vitro, 37° C., pH 7.0, 3 days, microaerophilic; read-out: antibiotic activity (MIC). In kind it is cell-based.
In the next data set the test system is C. pylori EI-5. Briefly: MIC by agar dilution method, C. pylori clinical isolate EI-5. In kind it is cell-based. Particulars: Helicobacter pylori, EI5, 72 h; EI-5, clinical isolate; in vitro, 37° C., pH 7.0, 3 days, microaerophilic; read-out: antibiotic activity (MIC).
The subject of the next data set is C. pylori EI-429. Briefly: MIC by agar dilution method, C. pylori clinical isolate EI-429. In kind it is cell-based. The note with it: Helicobacter pylori, EI429, 72 h; EI-429, clinical isolate; in vitro, 37° C., pH 7.0, 3 days, microaerophilic; read-out: antibiotic activity (MIC).
The next data set deals with C. pylori EI-393. Put plainly: MIC by agar dilution method, C. pylori clinical isolate EI-393. In kind it is cell-based. The note with it: Helicobacter pylori, EI393, 72 h; EI-393, clinical isolate; in vitro, 37° C., pH 7.0, 3 days, microaerophilic; read-out: antibiotic activity (MIC).
For the next data set, the system named is C. pylori EI-397. Put plainly: MIC by agar dilution method, C. pylori clinical isolate EI-397. The class given is cell-based. Particulars: Helicobacter pylori, EI397, 72 h; EI-397, clinical isolate; in vitro, 37° C., pH 7.0, 3 days, microaerophilic; read-out: antibiotic activity (MIC).
For a further data set, the system named is C. pylori EI-36. Put plainly: MIC by agar dilution method, C. pylori clinical isolate EI-36. The note with it: Helicobacter pylori, EI36, 72 h; EI-36, clinical isolate; in vitro, 37° C., pH 7.0, 3 days, microaerophilic; read-out: antibiotic activity (MIC). The class given is cell-based.
A further data set relates to C. pylori EI-46. Briefly: MIC by agar dilution method, C. pylori clinical isolate EI-46. The note with it: Helicobacter pylori, EI46, 72 h; EI-46, clinical isolate (resistant); in vitro, 37° C., pH 7.0, 3 days, microaerophilic; read-out: antibiotic activity (MIC). The class given is cell-based.
For another data set, the system named is C. pylori. Put plainly: antibiotic activity against C. pylori, overall conclusion. The note with it: compared with antibiotic substances / known compounds. The class given is cell-based.
Another data set concerns C. pylori EI-467. Briefly: MIC by agar dilution method, C. pylori clinical isolate EI-467. In kind it is cell-based. Particulars: Helicobacter pylori, EI467, 72 h; EI-467, clinical isolate; in vitro, 37° C., pH 7.0, 3 days, microaerophilic; read-out: antibiotic activity (MIC).
Another data set has as its system C. pylori NCTC11916. Put plainly: MIC by agar dilution method, C. pylori standard strain NCTC11916. In kind it is cell-based. The note with it: Helicobacter pylori, 72 h, in vitro, 37° C., pH 7.0, 3 days, microaerophilic, read-out: antibiotic activity (MIC).
A short description of data set [2]: Acute Toxicological Test in rats. The note with it: rat, in vivo, one time. As to the method: as §1, §2
In data set [3] the test system is C. pylori NCTC-11916, NCTC-11637, PCL-56, CPY-0011-1, KS-13, CLO-1 and CLO-6. Particulars: standard strains and clinical isolates; JP-A 3-173817; cited from earlier work.

Converted amounts (≈) assume the structure as drawn.

As for `COCCCOc1ccnc(C[S+]([O-])c2nc3ccccc3[nH]2)c1C` (centres unmarked) [(I), 2-[(4-(3-Methoxypropoxy)-3-methylpyridine-2-yl)-methylsulfinyl]-1H-benzimidazole], the minimal inhibitory concentration (MIC) (commonly the smallest concentration in the dilution series that meets the test's criterion for growth inhibition) turned out to be 0.4 µg/mL (≈ 1.11 µM) in the data set with C. pylori EI-612; 3.13 µg/mL (≈ 8.71 µM) in the data set on C. pylori EI-2; 3.13 µg/mL (≈ 8.71 µM) in the data set with C. pylori EI-391; 3.13 µg/mL (≈ 8.71 µM) in the data set with C. pylori EI-930; 3.13 µg/mL (≈ 8.71 µM) with C. pylori EI-933; 3.13 µg/mL (≈ 8.71 µM) in the data set on C. pylori NCTC11637. In addition, the minimal inhibitory concentration (MIC) in the data set with C. pylori EI-925 stood at 3.13 µg/mL (≈ 8.71 µM); in the data set on C. pylori EI-5 it was 3.13 µg/mL (≈ 8.71 µM); with C. pylori EI-429, 1.56 µg/mL (≈ 4.34 µM); with C. pylori EI-393, 3.13 µg/mL (≈ 8.71 µM); in the data set on C. pylori EI-397, 3.13 µg/mL (≈ 8.71 µM); with C. pylori EI-36, 6.25 µg/mL (≈ 17.4 µM). Besides, the values for the minimal inhibitory concentration (MIC) with C. pylori EI-46, in the data set with C. pylori EI-467 and in the data set with C. pylori NCTC11916 were 3.13 µg/mL (≈ 8.71 µM), 1.56 µg/mL (≈ 4.34 µM) and 3.13 µg/mL (≈ 8.71 µM), respectively. Moreover, the LD50 (in general, the dose at which mortality reaches 50%) in data set [1] (iv, female) is 237 mg/kg; in [1] (iv, male), 220 mg/kg; in data set [1] (po, female) it was 1010 mg/kg; in data set [1] (po, male), 1210 mg/kg; in data set [2] (iv, female) it was 152 mg/kg; in data set [2] (iv, male), 157 mg/kg. Further, the 50% lethal dose (LD50) in data set [2] (po, female) amounted to 1330 mg/kg; in [2] (po, male) it was 1450 mg/kg. Also, the C. pylori-eradicating activity result in the data set on C. pylori was “the same C. pylori-eradicating activity as an antibiotic substance”.

Turning to `Cc1c(OCC(F)(F)C(F)(F)F)ccnc1CSc1nc2ccccc2[nH]1` [JP-A 3-173817 compound (13), 2-[{3-Methyl-4-(2,2,3,3,3-pentafluoropropoxy)pyrid-2-yl}methylthio]-1H-benzimidazole], the antibiotic activity result in [3] is reported as “activity against all the tested strains”.

As to `COc1ccc2[nH]c(SCc3ncc(C)c(OC)c3C)nc2c1` [(IV), 5-Methoxy-2-{(4-methoxy-3,5-dimethyl-2-pyridinyl)methylthio}-1H-benzimidazole], the MIC in the data set with C. pylori EI-612 came out at 12.5 µg/mL (≈ 37.9 µM); with C. pylori EI-2, 25 µg/mL (≈ 75.9 µM); in the data set with C. pylori EI-391, 25 µg/mL (≈ 75.9 µM); with C. pylori EI-930 it was 12.5 µg/mL (≈ 37.9 µM); in the data set on C. pylori EI-933, 12.5 µg/mL (≈ 37.9 µM); in the data set with C. pylori NCTC11637, 25 µg/mL (≈ 75.9 µM). Further, the minimum inhibitory concentration (MIC) in the data set on C. pylori EI-925 worked out at 12.5 µg/mL (≈ 37.9 µM); with C. pylori EI-5 it was 25 µg/mL (≈ 75.9 µM); in the data set with C. pylori EI-429, 25 µg/mL (≈ 75.9 µM); in the data set on C. pylori EI-393 it was 25 µg/mL (≈ 75.9 µM); with C. pylori EI-397 it was 25 µg/mL (≈ 75.9 µM); in the data set with C. pylori EI-36 it was 12.5 µg/mL (≈ 37.9 µM). In addition, the MIC in the data set with C. pylori EI-46, in the data set on C. pylori EI-467 and with C. pylori NCTC11916 was 12.5 µg/mL (≈ 37.9 µM) throughout.

With `CC1(C)S[C@@H]2[C@H](NC(=O)[C@H](N)c3ccccc3)C(=O)N2[C@H]1C(=O)O` [(VII), ampicillin], the MIC in the data set on C. pylori EI-612 came to 0.05 µg/mL (≈ 0.143 µM); with C. pylori EI-2, 0.4 µg/mL (≈ 1.14 µM); in the data set with C. pylori EI-391, 0.1 µg/mL (≈ 0.286 µM); in the data set on C. pylori EI-930, 0.4 µg/mL (≈ 1.14 µM); in the data set with C. pylori EI-933, 0.05 µg/mL (≈ 0.143 µM); with C. pylori NCTC11637, 0.4 µg/mL (≈ 1.14 µM). Besides, the MIC is 0.2 µg/mL (≈ 0.572 µM) with C. pylori EI-925; 0.4 µg/mL (≈ 1.14 µM) in the data set on C. pylori EI-5; 0.2 µg/mL (≈ 0.572 µM) in the data set with C. pylori EI-429; 0.1 µg/mL (≈ 0.286 µM) with C. pylori EI-393; 0.1 µg/mL (≈ 0.286 µM) in the data set on C. pylori EI-397; 0.2 µg/mL (≈ 0.572 µM) in the data set with C. pylori EI-36. Further, the MIC in the data set on C. pylori EI-46, with C. pylori EI-467 and in the data set with C. pylori NCTC11916 was 0.05 µg/mL (≈ 0.143 µM) each time.

As for `Cc1c(OCC(F)(F)C(F)F)ccnc1CSc1nc2ccccc2[nH]1` [JP-A 3-173817 compound (12), 2-[{3-Methyl-4-(2,2,3,3-tetrafluoropropoxy)pyrid-2-yl}methylthio]-1H-benzimidazole], the antibiotic activity entry in data set [3] is “activity against all the tested strains”.
